# Source: patent US12377175B2, “Trifunctional constructs with tunable pharmacokinetics useful in imaging and anti-tumor therapies” (Cornell University, priority 2016, dated 2025)
# Assays:
# PSMA on LNCaP cells = molecular target: T1, PSMA on LNCaP cells (Homo sapiens, UniProt Q04609); details: cited from earlier work
# T1 construct: host or cells: LNCaP
# [1] = tested on: LNCaP xenograft tumor-bearing mice; experiment: Dosimetry (dose integrals from time-activity curves of 177Lu-labeled ligands); format: in vivo, mouse; details: over 96 h
# Protocol: Dosimetry: The dosimetry was calculated assuming a linear interpolation between the three time points. The average injected dose per organ was calculated by using the average of the activity and organ weights of the mice at that time point. Intermediate time points at every 4 hours were generated using the linear approximation and all time points were corrected for decay during the time interval between points. These curves were integrated using a trapezoidal approximation and the sum used to determine the residence time.
# [2] = tested on: LNCaP xenograft tumor-bearing mice; experiment: Biodistribution studies of 177Lu-labeled ligands in LNCaP xenograft mice; format: in vivo, mouse
# Protocol: (§1) Inoculation of mice with xenografts: All animal studies were approved by the Institutional Animal Care and Use Committee of Weill Cornell Medicine and were undertaken in accordance with the guidelines set forth by the USPHS Policy on Humane Care and Use of Laboratory Animals. Animals were housed under standard conditions in approved facilities with 12 h light/dark cycles. Food and water was provided ad libitum throughout the course of the studies. Hairless male nu/nu mice were purchased from the Jackson Laboratory. For inoculation in mice, LNCaP cells were suspended at 4×10^7 cells/mL in a 1:1 mixture of PBS:Matrigel (BD Biosciences). Each mouse was injected in the left flank with 0.25 mL of the cell suspension. The mice were imaged when the tumors reached approximately 200-400 mm^3, while biodistributions were conducted when tumors were in the range 100-400 mm^3.
# Biodistribution studies of 177Lu-labeled ligands in LNCaP xenograft mice: LNCaP xenograft tumor-bearing mice (5 per time point per compound) were injected intravenously with a bolus injection of 348-851 kBq (9.4-23 μCi) and 37-50 ng ([…]) of each ligand. The mice were sacrificed at 4, 24 and 96 h post injection. A blood sample was removed, and a full biodistribution study was conducted on the following organs (with contents): heart, lungs, liver, small intestine, large intestine, stomach, spleen, pancreas, kidneys, muscle, bone and tumor. Tissues were weighed and counted on a 2470 Wizard^2 Automatic Gamma Counter (Perkin Elmer). Counts were corrected for decay and for activity injected, and tissue uptake was expressed as percent injected dose per gram (% ID/g). Standard error measurement was calculated for each data point.
# [3] = Biodistribution / in vivo stability of [225Ac(macropa)]+ compared with 225Ac(NO3)3 and [225Ac(DOTA)]- in C57BL/6 mice; details: for accumulation of 225Ac in organs / blood clearance and excretion: tail vein, 15 min, 1 h, 5 h
# Protocol: C57BL/6 mice were injected via tail vein with 10-50 kBq of each radiometal complex and were sacrificed after 15 min, 1 h, or 5 h.
# LNCaP xenograft tumors = experiment: Therapy study in LNCaP xenograft mice; format: in vivo, mouse; details: for tumors not detectable (<0.5 mm^3): 75 d post injection
# Protocol: as §1, with “xenografts.” for “xenografts:”, “Male BALB/c athymic” for “Hairless male”, “Biodistributions” for “The mice were imaged when the tumors reached approximately 200-400 mm^3, while biodistributions”, “200-800 mm^3, while therapy studies were initiated when tumors were in the range 50-900” for “100-400”
# Therapy study in LNCaP xenograft mice. LNCaP xenograft tumor-bearing mice were randomly assigned to 5 groups (7 mice per group). […] The fourth group was injected with the same volume of vehicle. The fifth group was injected with 133 kBq ^225Ac-DOTA-Lys-IPBA. Tumor dimensions were measured and recorded three times weekly with digital calipers, and tumor volumes were calculated using the modified ellipsoid equation, V=0.5*length*width*width. […] Body weight was measured with a digital balance twice weekly, and mice were monitored for signs of distress. The mice were photographed weekly to visually confirm changes in tumor volume.
# T1 sequence (Q04609 whole entry): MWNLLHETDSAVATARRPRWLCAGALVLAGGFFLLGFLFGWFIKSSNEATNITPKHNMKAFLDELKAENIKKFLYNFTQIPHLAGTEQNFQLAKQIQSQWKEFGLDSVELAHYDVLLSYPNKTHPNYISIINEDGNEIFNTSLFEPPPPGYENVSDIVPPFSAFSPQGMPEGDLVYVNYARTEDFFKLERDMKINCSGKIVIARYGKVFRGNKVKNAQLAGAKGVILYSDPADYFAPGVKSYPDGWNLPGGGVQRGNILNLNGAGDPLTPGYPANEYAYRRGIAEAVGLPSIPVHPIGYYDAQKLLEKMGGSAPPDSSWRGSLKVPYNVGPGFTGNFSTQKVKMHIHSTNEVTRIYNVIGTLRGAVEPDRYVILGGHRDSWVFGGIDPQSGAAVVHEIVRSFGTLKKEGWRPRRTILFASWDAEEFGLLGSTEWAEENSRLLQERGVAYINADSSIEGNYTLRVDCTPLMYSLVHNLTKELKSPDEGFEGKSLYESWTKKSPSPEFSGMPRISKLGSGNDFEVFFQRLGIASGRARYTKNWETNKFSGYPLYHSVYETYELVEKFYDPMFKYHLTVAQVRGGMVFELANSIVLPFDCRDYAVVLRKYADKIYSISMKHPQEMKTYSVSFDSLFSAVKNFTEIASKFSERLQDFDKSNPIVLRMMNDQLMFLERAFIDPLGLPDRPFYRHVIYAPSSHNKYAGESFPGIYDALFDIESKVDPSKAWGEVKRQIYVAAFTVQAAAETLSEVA
smiles,measurement,setting,value
"O=C(O)CC[C@H](NC(=O)N[C@@H](CCC(=O)N[C@@H](CCCCN(Cc1nccn1CC(=O)O)Cc1nccn1CC(=O)O)C(=O)O)C(=O)O)C(=O)O.[C-]#[O+].[C-]#[O+].[C-]#[O+].[Tc+] [99mTc-MIP-1427, ^99mTc-((7S,12S,16S)-1-(1-(carboxymethyl)-1H-imidazol-2-yl)-2-((1-(carboxymethyl)-1H-imidazol-2-yl)methyl)-9,14-dioxo-2,8,13,15-tetraazaoctadecane-7,12,16,18-tetracarboxylic acid technetiumtricarbonylcomplex)]",Kd,PSMA on LNCaP cells,0.64 ± 0.46 nM
O=C([O-])CN1CCN(CC(=O)[O-])CCN(CC(=O)O)C(Cc2ccc(NC(=S)NCCCC[C@H](NC(=O)CCOCCOCCOCCOCCn3cc(-c4cccc(NC(=O)NCCCC[C@H](NC(=O)N[C@@H](CCC(=O)O)C(=O)O)C(=O)O)c4)nn3)C(=O)N[C@@H](CCCCNC(=O)Cc3ccc(I)cc3)C(=O)O)cc2)CN(CC(=O)[O-])CC1.[177Lu+3] (stereo partly drawn) [177Lu-RPS-061],dose integral in the tumor relative to 177Lu-PSMA-617,[1],at least two times higher
same,blood activity (comparison within the series),[2]; 4 h p.i.,highest blood activity
same,tumor-to-kidney ratio,[2]; 96 h p.i.,3.64±0.29
O=C([O-])CN1CCN(CC(=O)[O-])CCN(CC(=O)O)C(Cc2ccc(NC(=S)NCCCC[C@H](NC(=O)CCOCCOCCOCCn3cc(-c4cccc(NC(=O)NCCCC[C@H](NC(=O)N[C@@H](CCC(=O)O)C(=O)O)C(=O)O)c4)nn3)C(=O)N[C@@H](CCCCNC(=O)Cc3ccc(I)cc3)C(=O)O)cc2)CN(CC(=O)[O-])CC1.[177Lu+3] (stereo partly drawn) [177Lu-RPS-063],dose integral in the tumor relative to 177Lu-PSMA-617,[1],nearly four times higher
same,blood activity (comparison within the series),[2]; 4 h p.i.,highest blood activity
same,tumor uptake,[2]; 4 h p.i.,30.0±3.1 % ID/g
same,kidney uptake,[2]; 24 h p.i.,51.8±8.6 % ID/g
same,tumor uptake,[2]; 96 h p.i.,12.9±0.5 % ID/g
same,tumor-to-kidney ratio,[2]; 96 h p.i.,2.75±0.17
O=C([O-])CN1CCN(CC(=O)[O-])CCN(CC(=O)O)C(Cc2ccc(NC(=S)NCCCC[C@H](NC(=O)CCOCCOCCOCCOCCOCCOCCOCCOCCn3cc(-c4cccc(NC(=O)NCCCC[C@H](NC(=O)N[C@@H](CCC(=O)O)C(=O)O)C(=O)O)c4)nn3)C(=O)N[C@@H](CCCCNC(=O)Cc3ccc(I)cc3)C(=O)O)cc2)CN(CC(=O)[O-])CC1.[177Lu+3] (stereo partly drawn) [177Lu-RPS-066],dose integral in the tumor relative to 177Lu-PSMA-617,[1],at least two times higher
same,blood activity (comparison within the series),[2]; 4 h p.i.,lower blood retention
same,tumor uptake,[2]; 4 h p.i.,18.7±1.1 % ID/g
same,kidney uptake,[2]; 24 h p.i.,6.2±0.8 % ID/g
same,tumor-to-kidney ratio,[2]; 24 h p.i.,1.92±0.30
same,tumor uptake,[2]; 96 h p.i.,5.9±0.7 % ID/g
O=C([O-])CN1CCN(CC(=O)[O-])CCN(CC(=O)O)C(Cc2ccc(NC(=S)NCCCC[C@H](NC(=O)CCOCCOCCOCCOCCOCCOCCn3cc(-c4cccc(NC(=O)NCCCC[C@H](NC(=O)N[C@@H](CCC(=O)O)C(=O)O)C(=O)O)c4)nn3)C(=O)N[C@@H](CCCCNC(=O)Cc3ccc(I)cc3)C(=O)O)cc2)CN(CC(=O)[O-])CC1.[177Lu+3] (stereo partly drawn) [177Lu-RPS-069],dose integral in the tumor relative to 177Lu-PSMA-617,[1],at least two times higher
same,blood activity (comparison within the series),[2]; 4 h p.i.,lower blood retention
same,tumor uptake,[2]; 4 h p.i.,17.0±2.1 % ID/g
same,tumor uptake,[2]; 96 h p.i.,9.8±0.8 % ID/g
"O=[N+]([O-])[O-].O=[N+]([O-])[O-].O=[N+]([O-])[O-].[225Ac] [225Ac(NO3)3, reference compound]",accumulation of 225Ac in organs,[3],large accumulation in the liver and spleen
same,blood clearance and excretion,[3],slow blood clearance and excretion
O=C([O-])CN1CCN(CC(=O)[O-])CCN(CC(=O)O)C(Cc2ccc(NC(=S)N[C@@H](CCCCNC(=O)CCCc3ccc(I)cc3)C(=O)O)cc2)CN(CC(=O)[O-])CC1.[225Ac+3] (stereo partly drawn) [225Ac-DOTA-Lys-IPBA],mice surviving the first 21 d,LNCaP xenograft tumors; 133 kBq positive control group,100%
O=C(O)CC[C@H](NC(=O)N[C@@H](CCCCNC(=O)Nc1cccc(-c2cn(CCOCCOCCOCCC(=O)N[C@@H](CCCCNC(=S)Nc3cc(CN4CCOCCOCCN(Cc5cccc(C(=O)[O-])n5)CCOCCOCC4)nc(C(=O)[O-])c3)C(=O)NCCOCCOCCOCCOCCOCCOCCOCCOCCC(=O)N[C@@H](CCCCNC(=O)CCCc3ccc(I)cc3)C(=O)O)nn2)c1)C(=O)O)C(=O)O.[225Ac+3] [225Ac-RPS-074],mice surviving the first 21 d,LNCaP xenograft tumors; 37 kBq group,100%
same,tumor growth rate,LNCaP xenograft tumors; 37 kBq treatment group,appeared to grow at a similar rate to the untreated tumors
same,tumors not detectable (<0.5 mm^3),"LNCaP xenograft tumors; 74 kBq group, 1/7",14%
same,tumor volumes that began to increase again,"LNCaP xenograft tumors; 74 kBq group, after 42 d, 6/7",86%
same,time over which tumor volume decreased,"LNCaP xenograft tumors; 74 kBq group, post injection",≤ 42 days
same,mice with tumor volume less than 1 mm^3,"LNCaP xenograft tumors; 74 kBq group, up to 42 days p.i., 5/7",71%
same,antitumor effect,LNCaP xenograft tumors; 138 kBq and 74 kBq,significant antitumor effect
same,survival of the 75 d study,LNCaP xenograft tumors; 138 kBq treatment group,Every mouse in the 138 kBq treatment group survived
same,tumors not detectable (<0.5 mm^3),"LNCaP xenograft tumors; 138 kBq treatment group, 6/7",86%
"O=C([O-])CN1CCN(CC(=O)[O-])CCN(CC(=O)[O-])CCN(CC(=O)[O-])CC1.[225Ac+3] [[225Ac(DOTA)]-, reference compound]",blood clearance and excretion,[3],clear more rapidly through the urine
O=C([O-])c1cccc(CN2CCOCCOCCN(Cc3cccc(C(=O)[O-])n3)CCOCCOCC2)n1.[225Ac+3] [[225Ac(macropa)]+],in vivo stability of the complex,[3],highly stable in vivo
same,accumulation of 225Ac in organs,[3],did not accumulate in any organ
same,blood clearance and excretion,[3],rapidly cleared from mice
